# Reference: US9790169B2, “IDO inhibitors” (BRISTOL-MYERS SQUIBB COMPANY, priority 2015, dated 2017)
# Target: human IDO1 (Homo sapiens, UniProt P14902)
# Assay: Assessment of human IDO-1 inhibitory activity in HEK cells (human IDO1/HEK293 cells, kynurenine read-out with Ehrlich reagent, absorbance 490 nm)
# Assay type: cell-based
# Design: expressed in transfected cells
# Details: HEK Human IDO-1 cellular assay
# Method in brief: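 Kynurenine output from stably IDO1-transfected HEK293 cells (10,000/well, phenol red-free RPMI, 10% FBS) after 20 h compound exposure at 37 °C. The reaction was stopped with 0.2% TCA and heated 30 min at 50 °C, then the supernatant was mixed with Ehrlich reagent and read at 490 nm. IC50 was set against DMSO and a 500 nM reference standard as 0 and 100% inhibition.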
# human IDO1, sequence (P14902 whole entry): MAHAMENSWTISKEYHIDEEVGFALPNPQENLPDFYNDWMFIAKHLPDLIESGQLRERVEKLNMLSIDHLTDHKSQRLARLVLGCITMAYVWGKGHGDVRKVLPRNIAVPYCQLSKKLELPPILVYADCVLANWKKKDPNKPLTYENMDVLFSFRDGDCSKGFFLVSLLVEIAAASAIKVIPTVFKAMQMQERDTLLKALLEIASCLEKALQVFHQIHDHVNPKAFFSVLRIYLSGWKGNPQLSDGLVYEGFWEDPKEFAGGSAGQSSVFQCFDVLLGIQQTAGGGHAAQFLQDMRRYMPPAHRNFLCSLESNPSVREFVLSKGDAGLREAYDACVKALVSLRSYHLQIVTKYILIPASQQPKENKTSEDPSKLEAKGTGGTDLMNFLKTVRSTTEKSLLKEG
row,IC50 [nM],SMILES
1,< 5,"CC[C@H](CC(=O)O)c1ccc(N(CC)C2CCOCC2)c(NC(=O)Nc2ccc(OC)cc2F)c1 (single isomer, unassigned) [Example 530]"
2,< 5,"CC[C@H](CC(=O)O)c1ccc(N(CC)C2CCOCC2)c(NC(=O)Nc2ccc(Cl)cc2)c1 (single isomer, unassigned) [Example 531]"
3,< 50,"CC[C@H](CC(=O)O)c1ccc(N(CC)C2CCOCC2)c(NC(=O)Nc2ccc(Cl)nc2)c1 (single isomer, unassigned) [Example 532]"
4,> 50,"CC[C@H](CC(=O)O)c1ccc(N(CC)C2CCOCC2)c(NC(=O)Nc2ccc3c(c2)CS(=O)(=O)C3)c1 (single isomer, unassigned) [Example 533]"
5,> 50,"CC[C@H](CC(=O)O)c1ccc(N(CC)C2CCOCC2)c(NC(=O)Nc2cc(C)on2)c1 (single isomer, unassigned) [Example 534]"
6,< 5,"CCCN(c1ccc([C@@H](CC)CC(=O)O)cc1Nc1cnc(OCC)nc1)C1CCOCC1 (single isomer, unassigned) [Example 535]"
7,< 5,"CCCN(c1ccc([C@@H](CC)CC(=O)O)cc1Nc1ccc(C#N)cc1)C1CCOCC1 (single isomer, unassigned) [Example 536]"
8,< 5,"CCCN(c1ccc([C@@H](CC)CC(=O)O)cc1Nc1ccc2nc(C)sc2c1)C1CCOCC1 (single isomer, unassigned) [Example 537]"
9,< 5,"CCCN(c1ccc([C@@H](CC)CC(=O)O)cc1Nc1ccc(F)cc1)C1CCOCC1 (single isomer, unassigned) [Example 538]"
10,< 5,"CCCN(c1ccc([C@@H](CC)CC(=O)O)cc1Nc1ccc2c(c1)OC(F)(F)O2)C1CCOCC1 (single isomer, unassigned) [Example 539]"
11,< 5,"CCCN(c1ccc([C@@H](CC)CC(=O)O)cc1Nc1cnc(OC)nc1)C1CCOCC1 (single isomer, unassigned) [Example 540]"
12,< 5,"CCCN(c1ccc([C@@H](CC)CC(=O)O)cc1Nc1ccc(Cl)cc1)C1CCOCC1 (single isomer, unassigned) [Example 541]"
13,< 50,"CCCN(c1ccc([C@@H](COC)CC(=O)O)cc1Nc1ccc2nc(C)sc2c1)C1CCOCC1 (single isomer, unassigned) [Example 560]"
14,> 50,"CCCN(c1ccc([C@@H](COC)CC(=O)O)cc1Nc1ccc2c(c1)OC(F)(F)O2)C1CCOCC1 (single isomer, unassigned) [Example 561]"
15,< 5,"CCCN(c1ccc([C@@H](COC)CC(=O)O)cc1Nc1ccc(F)cc1)C1CCOCC1 (single isomer, unassigned) [Example 562]"
16,< 50,"CCCN(c1ccc([C@@H](COC)CC(=O)O)cc1Nc1cnc(OCC2CC2)nc1)C1CCOCC1 (single isomer, unassigned) [Example 563]"
17,< 5,"CCCN(c1ccc([C@@H](COC)CC(=O)O)cc1Nc1ccc(Cl)cc1)C1CCOCC1 (single isomer, unassigned) [Example 564]"
18,< 50,"CCOc1ncc(Nc2cc(C(CC(=O)O)c3ccccc3)ccc2N(CC)C2CCOCC2)cn1 (single isomer, unassigned) [Example 578, 3-(3-((2-Ethoxypyrimidin-5-yl)amino)-4-(ethyl(tetrahydro-2H-pyran-4-yl)amino)phenyl)-3-phenylpropanoic acid]"
19,> 50,"CCN(c1ccc(C(CC(=O)O)c2ccccc2)cc1Nc1ccc2nc(C)sc2c1)C1CCOCC1 (single isomer, unassigned) [Example 579, 3-(4-(ethyl(tetrahydro-2H-pyran-4-yl)amino)-3-((2-methylbenzo[d]thiazol-6-yl)amino)phenyl)-3-phenylpropanoic acid]"

row,IC50 [nM],SMILES
1,< 5,"CCN(c1ccc(C(CC(=O)O)c2ccccc2)cc1Nc1ccc(Cl)cc1)C1CCOCC1 (single isomer, unassigned) [Example 580, 3-(3-((4-chlorophenyl)amino)-4-(ethyl(tetrahydro-2H-pyran-4-yl)amino)phenyl)-3-phenylpropanoic acid]"
2,< 5,"CCN(c1ccc(C(CC(=O)O)c2ccccc2)cc1Nc1ccc(C#N)cc1)C1CCOCC1 (single isomer, unassigned) [Example 581, 3-(3-((4-cyanophenyl)amino)-4-(ethyl(tetrahydro-2H-pyran-4-yl)amino)phenyl)-3-phenylpropanoic acid]"
3,< 50,"CCN(c1ccc(C(CC(=O)O)c2ccccc2)cc1Nc1ccc(OC(F)F)cc1)C1CCOCC1 (single isomer, unassigned) [Example 583, 3-(3-((4-(difluoromethoxy)phenyl)amino)-4-(ethyl(tetrahydro-2H-pyran-4-yl)amino)phenyl)-3-phenylpropanoic acid]"
4,> 50,"CCN(c1ccc(C(CC(=O)O)c2ccccc2)cc1NC(=O)Nc1ccc(C)cc1)C1CCOCC1 (single isomer, unassigned) [Example 584, 3-(4-(Ethyl(tetrahydro-2H-pyran-4-yl)amino)-3-(3-(p-tolyl)ureido)phenyl)-3-phenylpropanoic acid]"
5,< 50,"CCN(c1ccc(C(CC(=O)O)c2ccccc2)cc1NC(=O)Nc1ccc(Cl)cc1F)C1CCOCC1 (single isomer, unassigned) [Example 585, 3-(3-(3-(4-chloro-2-fluorophenyl)ureido)-4-(ethyl (tetrahydro-2H-pyran-4-yl)amino)phenyl)-3-phenylpropanoic acid]"
6,> 50,"CCN(c1ccc(C(CC(=O)O)c2ccccc2)cc1NC(=O)Nc1ccc(OC)cc1F)C1CCOCC1 (single isomer, unassigned) [Example 586, 3-(4-(ethyl(tetrahydro-2H-pyran-4-yl)amino)-3-(3-(2-fluoro-4-methoxyphenyl)ureido)phenyl)-3-phenylpropanoic acid]"
7,> 50,"CCN(c1ccc(C(CC(=O)O)c2ccccc2)cc1NC(=O)Nc1cc(C)on1)C1CCOCC1 (single isomer, unassigned) [Example 587, 3-(4-(ethyl(tetrahydro-2H-pyran-4-yl)amino)-3-(3-(5-methylisoxazol-3-yl)ureido)phenyl)-3-phenylpropanoic acid]"
8,> 50,"CCOc1ncc(Nc2cc(C(CC(=O)O)c3ccccc3)ccc2N(CC)C2CCOCC2)cn1 (single isomer, unassigned) [Example 588, 3-(3-((2-Ethoxypyrimidin-5-yl)amino)-4-(ethyl(tetrahydro-2H-pyran-4-yl)amino)phenyl)-3-phenylpropanoic acid]"
9,< 50,"CCN(c1ccc(C(CC(=O)O)c2ccccc2)cc1Nc1ccc(Cl)cc1)C1CCOCC1 (single isomer, unassigned) [Example 590, 3-(3-((4-chlorophenyl)amino)-4-(ethyl(tetrahydro-2H-pyran-4-yl)amino)phenyl)-3-phenylpropanoic acid]"
10,> 50,"CCN(c1ccc(C(CC(=O)O)c2ccccc2)cc1Nc1ccc(Cl)cc1F)C1CCOCC1 (single isomer, unassigned) [Example 592, 3-(3-((4-chloro-2-fluorophenyl)amino)-4-(ethyl(tetrahydro-2H-pyran-4-yl)amino)phenyl)-3-phenylpropanoic acid]"
11,> 50,"CCN(c1ccc(C(CC(=O)O)c2ccccc2)cc1NC(=O)Nc1ccc(Cl)cc1F)C1CCOCC1 (single isomer, unassigned) [Example 595, 3-(3-(3-(4-chloro-2-fluorophenyl)ureido)-4-(ethyl(tetrahydro-2H-pyran-4-yl)amino)phenyl)-3-phenylpropanoic acid]"
12,< 5,"CCN(c1ccc(C(C)CC(=O)O)cc1Nc1ccc(Cl)cc1)C1CCOCC1 (single isomer, unassigned) [Example 612 E1, 3-(3-((4-Chlorophenyl)amino)-4-(ethyl(tetrahydro-2H-pyran-4-yl)amino)phenyl)butanoic acid]"
13,< 5,"CCN(c1ccc(C(C)CC(=O)O)cc1Nc1ccc(C#N)cc1)C1CCOCC1 (single isomer, unassigned) [Example 613, 3-(3-((4-cyanophenyl)amino)-4-(ethyl(tetrahydro-2H-pyran-4-yl)amino)phenyl) butanoic acid]"
14,< 50,"CCN(c1ccc(C(C)CC(=O)O)cc1Nc1cnc(OCC2CC2)nc1)C1CCOCC1 (single isomer, unassigned) [Example 614, 3-(3-((2-(cyclopropylmethoxy)pyrimidin-5-yl)amino)-4-(ethyl(tetrahydro-2H-pyran-4-yl)amino)phenyl)butanoic acid]"
15,< 5,"CCN(c1ccc(C(C)CC(=O)O)cc1Nc1ccc(F)cc1)C1CCOCC1 (single isomer, unassigned) [Example 615, 3-(4-(ethyl(tetrahydro-2H-pyran-4-yl)amino)-3-((4-fluorophenyl)amino)phenyl) butanoic acid]"
16,< 5,"CCN(c1ccc(C(C)CC(=O)O)cc1Nc1ccc2c(c1)OC(F)(F)O2)C1CCOCC1 (single isomer, unassigned) [Example 616, 3-(3-((2,2-difluorobenzo[d] [1,3]dioxol-5-yl)amino)-4-(ethyl(tetrahydro-2H-pyran-4-yl)amino)phenyl)butanoic acid]"
17,< 50,"CCN(c1ccc(C(C)CC(=O)O)cc1Nc1ccc2nc(C)sc2c1)C1CCOCC1 (single isomer, unassigned) [Example 617, 3-(4-(ethyl(tetrahydro-2H-pyran-4-yl)amino)-3-((2-methylbenzo[d]thiazol-6-yl)amino)phenyl)butanoic acid]"
18,< 5,"CCOc1cnc(Nc2cc(C(C)CC(=O)O)ccc2N(CC)C2CCOCC2)cn1 (single isomer, unassigned) [Example 618, 3-(3-((5-ethoxypyrazin-2-yl)amino)-4-(ethyl (tetrahydro-2H-pyran-4-yl)amino)phenyl)butanoic acid]"
19,< 50,"CCOc1ncc(Nc2cc(C(C)CC(=O)O)ccc2N(CC)C2CCOCC2)cn1 (single isomer, unassigned) [Example 619, 3-(3-((2-ethoxypyrimidin-5-yl)amino)-4-(ethyl (tetrahydro-2H-pyran-4-yl)amino)phenyl)butanoic acid]"
